The values that follow come from ChEMBL document CHEMBL1138165, “Structure-activity studies of quinuclidinone analogs as anti-proliferative agents in lung cancer cell lines” (2006).

In assay [1] the test system is NCI-H1299. Description: Viability of H1299 (p53 null) cells at 4 mM by MTT assay. Format: functional. The conditions noted are these: Homo sapiens. A general note: Formazan colour is commonly taken as a measure of viable cells.
In assay [2] the test system is NCI-H1299. Description: Viability of H1299 (p53 null) cells in presence of 4 Gy at 4 mM by MTT assay. Format: functional. The conditions noted are these: Homo sapiens.

Active and inactive are the calls of the source. The rule behind the calls is not given here.

As to `CC(=O)OCC1(COC(C)=O)C(=O)C2CCN1CC2`, the result in the assay on NCI-H1299 [1] was Active.
`OCC1(CO)C(O)C2CCN1CC2` (stereo not drawn): the result with NCI-H1299 [1] was inactive.
Turning to `O=C1CN2CCC1CC2`, the outcome in the assay on NCI-H1299 [1] was inactive.
Consider `CC1(C)OCC2(CO1)C(=O)C1CCN2CC1`, for which the figures for the GI50 in the assay on NCI-H1299 [1] and in the assay with NCI-H1299 [2] were 19.2 µM and 4.74 µM, respectively.
For `O=C1C2CCN(CC2)C1(CO)CO`, the result with NCI-H1299 [1] was Active.
On to `O=C1C2CCN(CC2)C12COC(c1ccccc1)OC2` (stereo not drawn), for which the concentration for 50% growth inhibition (GI50) in the assay on NCI-H1299 [1] came to 17.3 µM; in the assay with NCI-H1299 [2] it was 4.49 µM.

A word on the GI50: it is the concentration that inhibits growth by half.
